The first assay concerns the target T1, USP8 Rhod domain (Homo sapiens, UniProt P40818).
T1 construct: USP8 Rhod (174–317) (UniProt: P40818); GST (cleaved yes); made in house; host or cells: Escherichia coli BL21-Gold (DE3)
T1 sequence (P40818 174-317): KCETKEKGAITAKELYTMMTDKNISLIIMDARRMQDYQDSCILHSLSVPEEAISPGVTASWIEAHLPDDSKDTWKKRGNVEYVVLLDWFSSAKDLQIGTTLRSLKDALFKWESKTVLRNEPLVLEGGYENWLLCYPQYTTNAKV
As to the kind of experiment: Peptide-phage display-based deep mutational scanning (DMS), USP8 Rhod domain. Format: binding. The following applies: PSSM, library USP8_DMS, days 2,3; position 7. The protocol:
Four rounds of phage selections were carried out using the second generation human disorderome library or the constructed deep mutational scanning library. At least three individual replicates were used for each bait protein. 10 µg of GST-tagged proteins or GST control (diluted in PBS from the stock of proteins kept in the purification elution buffer) were immobilized in 100 µL PBS on a 96-well MaxiSorp (Nunc) plate overnight at 4 °C. The plates were incubated with blocking buffer (with 0.5% BSA in PBS) for 1 h at 4 °C followed by washing with 0.05% Tween 20 in PBS four times. The naïve phage library (10^11 CFU) was diluted in 1/5th volume PEG/NaCl (20% PEG-8000, 0.4 M NaCl) and 1X PBS, incubated on ice for 10 min and centrifuged at 10,000 [drawing 3] g for 10 min. The pellet was resuspended in the volume of PBS (100 µL/ well). The GST-coated control plate was incubated with 100 µL library per well in PBS for 1 h at 4 °C to remove non-specific binders. The supernatant was transferred to the target wells and incubated for 2 h at 4 °C. The wells were washed five times with 0.05% Tween 20 in PBS and the bound phages were eluted with 100 µL per well log-phase E. coli OmniMAX by incubating at 37° C while shaking. After 30 min, M13KO7 helper phages were added and incubated for an additional 45 min. The bacterial cultures were transferred to 1 mL 2YT supplemented with 100 µg/mL carbenicillin, 30 µg/mL kanamycin and 0.3 mM IPTG and grew overnight at 37 °C while shaking. The following day the cultures were centrifuged for 10 min at 2,000 [drawing 4] g, 4 °C. 1/10th volume of 10 [drawing 5] PBS was added to adjust the pH and heated at 65 °C for 10 min. The phage pools from each round were used as in-phages for the next round of selections.
The samples were prepared for NGS as previously described. […] The PCR products were normalized with 25 µL Mag-bind Total Pure NGS beads (Omega Biotek) and 10 µL of each eluted sample (Qiagen Elution Buffer) was pooled and cleaned-up with a PCR purification kit (Qiagen). The PCR product was confirmed by 2% agarose electrophoresis and the band was extracted with QIAquick Gel extraction Kit (Qiagen) and eluted with 30 µL TE buffer. The dsDNA was quantified using QuantiT PicoGreen dsDNA Assay Kit (Thermo Fisher) and sent for NGS (Illumina MiSeq v3, 1 × 150 bp read setup, 20% PhiX, NGI SciLifeLab facility, Sweden). The NGS data were demultiplexed, adapter regions were trimmed and sequences with an average quality of at least 20 were translated to peptide sequences. The NGS data were analysed using custom Python scripts. The total read NGS counts for each selection experiment of each peptide sequence were compiled and annotated in PepTools (https://slim.icr.ac.uk/tools/peptools/). Since ProP-PD is in essence a competition assay, the possibility of the input phage library influencing the selection outcome was explored. […] Pearson correlation coefficient and p-value were calculated using Python’s SciPy library.
Take “KIAA1614_Q5VZ46_569_584 G7Q (MERVLGQLSSPLRLLP; UniProt Q5VZ46 569-584, looked up, variant G7Q)”: the “enrichment_relative_to_wt at position 7 (wt G)” value turned out to be 1.89 and the “proportion of amino acid at position 7 (wt G)” value turned out to be 0.03.
On the same counts, the results for “KIAA1614_Q5VZ46_569_584 G7R (MERVLGRLSSPLRLLP; UniProt Q5VZ46 569-584, looked up, variant G7R)” are -19 and 0.000822.

The same assay, now with this note: ProP-PD DMS, bait USP8_Rhodanese__P40818_174_317; pair wild-type GMERVLGGLSSPLRLL (wt_00013) vs mutant; positive where wild-type fraction is higher, negative where mutant fraction is higher.
In turn, GMERVLGGLSSPARLL gave a hit_pair_ratio of 46.00.
The same measure, in the same setting: the value for GMERVLGGLESPLRLL was 131.67; that for GMERVLGGLSSPLKLL was 5.73.
On the same count and under the same terms, the value for GMERVLGGKSSPLRLL was 20.99.
On the same count and under the same terms, the figure for GMERVLGGLSSPLRLV is 40.25; for GMERVLGGLSSPLFLL it is 1.48.

The same assay, now with this note: ProP-PD pairs, bait USP8_Rhodanese__P40818_174_317; wild-type/mutant pair, wild type KIAA1614 569-584 GMERVLGGLSSPLRLL (wt_00013).
Turning to GMERKLGGLSSPLRLL, the hit_pair_ratio is 30.82.
Same read-out and setting: the value for GMARVLGGLSSPLRLL was 8.89; that for GMERVLGGESSPLRLL was -80.43.
GMERVLGGISSPLRLL registered a hit_pair_ratio of 4.20.
Still for that read-out and setting: the value for GMERVLGGSSSPLRLL was 2.67.
On to GGERVLGGLSSPLRLL, for which the hit_pair_ratio was -22.40.
On the same count and under the same terms, the figure for GMERVLGGASSPLRLL is 1.62.
GMERALGGLSSPLRLL: the hit_pair_ratio is 4.69.
Still for that read-out and setting: the value for GMERQLGGLSSPLRLL was -6.89; that for GMLRVLGGLSSPLRLL was 32.20.

Staying with this assay, now noted: bait USP8_Rhodanese__P40818_174_317; wild-type/mutant pair ratio of averaged fractions; negative values where mutant fraction is higher.
Consider GLALWEAKMVQLAERA, for which the hit_pair_ratio is -1.44.
For GLALWEAKMKQLAEGA, the hit_pair_ratio was 5.87.
Still for that read-out and setting: the figure for GLALWEAKMFQLAERA is 59.51; for GLALWEAKMKDLAERA it is -1.51; for GLALWEAKMKQLAERV it is -1.88.
With GLALWEAKMAQLAERA, the hit_pair_ratio is listed as -3.11.
GLALWEAKMKVLAERA: the hit_pair_ratio is on record as 553.50.
In the case of GLALWEAKMKQLAEEA, the hit_pair_ratio is on record as 15.47.
Still for that read-out and setting: the figure for GLALWEAKMKQLEERA is -19.29; for GLALWEAKMKQLPERA it is 87.51; for GLALWEAKMKQLAERS it is 1.62.
On the same count and under the same terms, the figure for GLALWEAKMKQLKERA is 184.50.
Still for that read-out and setting: the figure for TMERVLGGLSSPLRLL is -2.57; for GLALWEAKMKQLAERM it is 33.55.
For GLALWEAKMKQLVERA, the hit_pair_ratio is listed as -3.40.
Same read-out and setting: the value for GLALWEAKMKQLAEYA was -10.12; that for GLALWEAKMKQLAWRA was 1107.01.

Staying with this assay, now noted: wild type/mutant pair; bait USP8_Rhodanese__P40818_174_317; vs hit_library_peptide_wt GLALWEAKMKQLAERA; negative where mutant fraction exceeds wild type; ProP-PD pairs (sheet S7.B).
GAALWEAKMKQLAERA displayed a hit_pair_ratio of 1107.01.
On the same count and under the same terms, the figure for GLGLWEAKMKQLAERA is 123.66.
Same read-out and setting: the value for NLALWEAKMKQLAERA was 107.46; that for GLALWEAKVKQLAERA was 369.00; that for GLDLWEAKMKQLAERA was -4.35.
Still for that read-out and setting: the figure for GLALTEAKMKQLAERA is 1107.01; for GLALWELKMKQLAERA it is 1107.01.
GLALWEWKMKQLAERA gave a hit_pair_ratio of 23.98.
On the same count and under the same terms, the figure for GLALWAAKMKQLAERA is 553.50.
On the same count and under the same terms, the figure for GLALWEAKPKQLAERA is 195.90; for GLAPWEAKMKQLAERA it is 1107.01.
Still for that read-out and setting: the figure for GLATWEAKMKQLAERA is 8.05; for GLALWEAKQKQLAERA it is 151.61.
Substance GLAMWEAKMKQLAERA returned a hit_pair_ratio of -5.97.
Take GLAGWEAKMKQLAERA: the hit_pair_ratio stood at 208.81.
The same measure, in the same setting: the figure for GLALWEANMKQLAERA is 208.81.
Still for that read-out and setting: the value for GLALSEAKMKQLAERA was 61.66; that for GLALWEIKMKQLAERA was 123.00.
